Marks after values point to notes of the source that are not given here.
Assays:
Type in all cases: in vivo, human
[1] = test system: Subjects with a DSM-IV diagnosis of schizophrenia; assay: California Verbal Learning Test (CVLT-II)
Description: (§1) Participants. Subjects with a DSM-IV diagnosis of schizophrenia, confirmed by SCID interview, were enrolled in a double-blind, placebo-controlled, crossover study. Other main inclusion criteria were: minimum 18 years of age, treatment with 1 or 2 approved antipsychotic medication with no dose changes in the previous four weeks, a minimum Positive and Negative Syndrome Scale (PANSS) score of at least 55 with a minimum score of 4 and a Clinical Global Impressions-Severity (CGI-S) scale score of at least 4 (moderately ill) at randomization.
Study Drugs. Subjects were maintained on a stable dose of their pre-study antipsychotic medication regimen. In addition to their antipsychotics, subjects received 3-weeks of daily intranasal oxytocin (Syntocinin, Novartis, Basel Switzerland) dosed 20 IU twice a day for the first week and then 40 IU twice a day for weeks two and three, and 3-weeks of daily intranasal placebo. Order of treatment (placebo-oxytocin or oxytocin-placebo) was randomly assigned using a computer generated random sequence.
Safety and efficacy assessments. Subjects, raters, and study staff enrolling patients were blinded to treatment condition. The total study duration for each individual subject was 7 weeks, which included a baseline visit (V1), a three-week initial treatment period, a 1 week washout (between V4 and V5), a repeat baseline visit, and a three-week crossover treatment period. Subjects received the cognitive tests a total of 3 times: at baseline visits (V1, and after 3 weeks of treatment with placebo and oxytocin (V4, V7).
The CVLT-II is a commonly-used test of new learning and declarative verbal memory, which closely resembles the HVLT (Hopkins Verbal Learning Test), a part of the standardized MATRICS cognitive battery, now used to measure cognitive changes in Schizophrenia clinical trials. In the CVLT-II, lists of 16 words (List A) from various semantic categories are read over 5 trials. After each trial, subject is asked to recall as many words as they can (free recall). An interference list (List B) is then presented. Free and cued recall of List A is measured immediately following (short delay) and 20 minutes (long delay). At the end of the test, a 44 word recognition task is performed with subjects identifying target words among 28 distractors. The CVLT's format allows assessment of multiple aspects of cognition: overall recall ability, rate of learning over sequential trials, ability to retain learned material, and item recognition.
For each subtest a two-factor repeated ANOVA with drug treatment (placebo/oxytocin) and order of treatment as factors was conducted.

[2] = test system: Subjects with a DSM-IV diagnosis of schizophrenia; assay: Reported adverse events in the crossover study
Procedure: (§2) Study Drugs. Subjects were maintained on their pre-study antipsychotic medication regimen and doses were not changed during the study. Subjects received 3-weeks of daily intranasal oxytocin (Syntocinin, Novartis, Basel Switzerland) and 3-weeks of daily intranasal placebo. Oxytocin was dosed at 20 IU (5 sprays) twice a day for the first week and 40 IU (10 sprays) twice a day thereafter. Order of treatment (placebo-oxytocin or oxytocin-placebo) was randomly assigned using a computer generated random sequence.
(§3) Safety was assessed at each visit by a medical exam, and assessments of reported adverse events. In addition, urine was collected for osmolality testing and blood was drawn at each visit and analyzed at UCSD laboratories for basic chemistry analysis. Statistical Methods. Data from all subjects who received at least one dose and one assessment in both treatment periods (intent-to-treat population) were subjected to analysisusing SPSS version 11.0. Baseline scores for both drug treatments were compared for similarity using paired t-test. The change in baseline scores from period 1 to period 2 was compared among the placebo-oxytocin versus oxytocin-placebo group using a two-sample t-test to assess for period carry-over effects. PANNS and CGI data were subjected to repeated measures ANOVA with drug and treatment-week as repeated measures factors. Treatment sequence was included as a between-subjects factor to evaluate possible period and carry-over effects. Paired t-tests, corrected for multiple-comparisons using Bonferoni method were used to compare placebo and oxytocin scores at endpoint and each the other assessment visits. Cohen's d statistic was calculated for each measure at endpoint.

[3] = test system: Subjects with a DSM-IV diagnosis of schizophrenia; assay: PANSS and CGI efficacy assessment, double-blind placebo-controlled crossover study of adjunctive intranasal oxytocin; details: for CGI-Severity score: Baseline of oxytocin arm (CGI-Severity, not CGI-Improvement); for CGI-I Cohen's d / PANSS Negative Cohen's d / PANSS Total Cohen's d: Week 3, oxytocin vs placebo; for PANSS Total Cohen's d: 0.2 small, 0.5 medium, 0.8 large
Description: as §1, with “in this” for “in a”, “weeks,” for “weeks, a minimum”, “55” for “55 with a minimum score of 4”, “randomization. Because it was hypothesized that oxytocin may improve paranoia due to its pro-trust effect, subjects were also required to have a score of at least 4 (moderate) on item 6 (suspiciousness/persecution) of the PANSS. This study was approved by the UCSD IRB and written informed consent was obtained from all subjects.” for “randomization.”
as §2
Efficacy and Safety assessments. Subjects, raters and study staff enrolling patients were blinded to treatment condition. The total study duration for each individual subject was 7 weeks. Subjects were evaluated […]. Visit 1 and 5 were baseline assessments and visits 2, 3, 4 and 6, 7, 8 were the weekly visits for the two treatment periods, respectively. Washout occurred in the week between visit 4 and 5. At each visit raters assessed subjects utilizing the PANSS, CGI-S and CGI-Improvement (CGI-I). PANSS-total at the final visit of each treatment period was chosen a′ priori as the primary efficacy endpoint.
as §3

[4] = test system: Subjects with a DSM-IV diagnosis of schizophrenia; assay: Letter Number Sequencing subtest (LNS) of WAIS-III; details: after 3 weeks of intranasal oxytocin
Description: as §1
Study Drugs. Subjects were maintained on a stable dose of their pre-study antipsychotic medication regimen. In addition to their antipsychotics, subjects received 3-weeks of daily intranasal oxytocin (Syntocinin, Novartis, Basel Switzerland) dosed 20 IU twice a day for the first week and then 40 IU twice a day for weeks two and three, and 3-weeks of daily intranasal placebo. […]
The Letter Number Sequencing subtest (LNS) is a component of the larger WAIS-III and is used to measure attention and working memory. […] In each trial of the LNS, a list of letters and numbers are read in a mixed order to participants; participants are asked to recall first the digits and then the letters in the order they were presented. […] Scores are calculated by totaling the correct responses for each length. […]

[5] = Blood chemistry analysis and urine osmolality at endpoint
Procedure: as §2, §3

[6] = after 3 weeks of intranasal oxytocin, Mean (S.E.M.)
[7] = 3 weeks intranasal oxytocin, 15 completers
[8] = Baseline of oxytocin arm, mean (SD)
[9] = Week 1, intranasal 20 IU twice a day, mean (SD)
[10] = Week 2, intranasal 40 IU twice a day, mean (SD)
[11] = Week 3, intranasal 40 IU twice a day, mean (SD)

For CC[C@H](C)[C@@H]1NC(=O)[C@H](Cc2ccc(O)cc2)NC(=O)[C@@H](N)CSSC[C@@H](C(=O)N2CCC[C@H]2C(=O)N[C@@H](CC(C)C)C(=O)NCC(N)=O)NC(=O)[C@H](CC(N)=O)NC(=O)[C@H](CCC(N)=O)NC1=O [Oxytocin, Cys-Tyr-Ile-Gln-Asn-Cys-Pro-Leu-Gly], the “CVLT Long Delay Cued Recall Raw” value [1, 6] was 11.87 (0.97), the “CVLT Long Delay Free Recall Raw” value [1, 6] was 10.87 (0.87) and the “CVLT Short Delay Cued Recall Raw” value [1, 6] was 12.00 (0.79). For the same molecule, the “CVLT Short Delay Free Recall Raw” value [1, 6] was 10.60 (1.03), the “CVLT Total Intrusions Raw” value [1, 6] was 4.93 (1.90) and the “CVLT Total Recall Discriminability Raw” value [1, 6] was 2.22 (0.19). The “CVLT Total Recognition Discriminability Raw” value [1, 6] was 2.97 (0.28), the “CVLT Total Repetitions Raw” value [1, 6] was 13.67 (5.44) and the “CVLT Trials 1-5 Raw” value [1, 6] was 55.67 (3.65). The “CVLT subscale scores, oxytocin versus placebo” value ([1]; all 9 subscales, after 3 weeks) was “scored higher”, the “rates of reported adverse effects, oxytocin compared to placebo” value ([2]; 3 weeks each treatment) was “no significant differences” and the “serious adverse events reported during the study” value ([2]; 3 weeks intranasal oxytocin twice daily) was “no serious adverse events”. The “Dizzy or lightheaded, subjects reporting” value [2, 7] was 26.7%, the “Dyspepsia or nausea, subjects reporting” value [2, 7] was 26.7% and the “Headache, subjects reporting” value [2, 7] was 26.7%. For the same molecule, the “Lethargy, subjects reporting” value [2, 7] was 0.0%, the “Nasal Irritation, subjects reporting” value [2, 7] was 26.7% and the “Sleep impairment, subjects reporting” value [2, 7] was 33.3%. For the same molecule, the tolerability ([2]; given twice daily for three weeks) was “well-tolerated”, the “reduction on the PANSS-total” value ([3]; 3 weeks of treatment vs baseline (placebo 3.0 points)) was 7.9 point and the CGI-Severity score ([3]; mean (SD)) was 4.67 (0.61)^. The CGI-Severity score ([3]; mean (SD), listed as oxytocin) was 4.67±0.74, the “PANSS Gen. Psy. score” value [3, 8] was 38.8 (7.6) and the “PANSS Negative score” value [3, 8] was 20.2 (4.7). For the same molecule, the “PANSS Positive score” value [3, 8] was 21.7 (4.1), the “PANSS Total score” value ([3]; Baseline of oxytocin arm, mean (standard deviation)) was 81.5 (12.4) and the “PANSS Total score” value ([3]; Baseline of oxytocin arm, mean (standard deviation), listed as oxytocin) was 81.4±12.43. The “PANSS Total score” value ([3]; Week 1, intranasal 20 IU twice a day, adjunctive to antipsychotics, mean (SD)) was 76.3 (11.3), the CGI-I score [3, 9] was 3.33 (0.62) and the “PANSS Gen. Psy. score” value [3, 9] was 36.4 (8.1). The “PANSS Negative score” value [3, 9] was 20.1 (4.8), the “PANSS Positive score” value [3, 9] was 20.6 (4.5) and the “PANSS Total score” value ([3]; Week 2, intranasal 40 IU twice a day, adjunctive to antipsychotics, mean (SD)) was 76.9 (13.2). The CGI-I score [3, 10] was 3.33 (1.20), the “PANSS Gen. Psy. score” value [3, 10] was 36.3 (8.2) and the “PANSS Negative score” value [3, 10] was 19.7 (4.3). The “PANSS Positive score” value [3, 10] was 20.5 (4.6), the “PANSS Total score” value ([3]; Week 3 (endpoint), intranasal 40 IU twice a day, adjunctive to antipsychotics, mean (SD)) was 73.6 (13.6)** and the “CGI-I Cohen's d” value [3] was “[0.74]”. The “PANSS Negative Cohen's d” value [3] was “[0.50]”, the “PANSS Total Cohen's d” value [3] was “[0.43]” and the “PANSS Total Cohen's d” value ([3]; listed as oxytocin) was 0.43. The “CGI-I Cohen's d” value ([3]; listed as oxytocin) was 0.74, the “PANSS Negative Cohen's d” value ([3]; listed as oxytocin) was 0.50 and the CGI-I score [3, 11] was 3.07 (0.70)**. For the same molecule, the “PANSS Gen. Psy. score” value [3, 11] was 34.8 (6.9), the “PANSS Negative score” value [3, 11] was 18.5 (4.5)* and the “PANSS Positive score” value [3, 11] was 19.9 (5.2)**. The “PANSS general psychopathology subscale, oxytocin versus placebo” value ([3]; any time point) was “not significantly different”, the “PANSS-total difference oxytocin versus placebo” value ([3]; baseline) was 0.60 and the “PANSS-total scores, oxytocin versus placebo” value ([3]; endpoint (week 3) visit, p<0.001) was “significantly lower”. The “PANSS-total difference oxytocin versus placebo” value ([3]; endpoint (week 3), p<0.001) was 5.46, the “PANSS-total difference oxytocin versus placebo” value ([3]; week 1) was 0.60 and the “PANSS-total difference oxytocin versus placebo” value ([3]; week 2) was 1.20. For the same molecule, the “CGI-I, oxytocin versus placebo” value ([3]; week 3, P<0.001) was “significantly lower”, the “PANSS positive subscale scores, oxytocin versus placebo” value ([3]; week 3, P=0.006) was “significantly lower” and the “PANSS negative subscale scores, oxytocin versus placebo” value ([3]; week 3, p=0.023) was “significantly lower”. For the same molecule, the “scores on the LNS, oxytocin versus placebo” value [4] was “no significant difference”, the “measured blood chemistry or urine osmolality, oxytocin versus placebo” value ([5]; at endpoint) was “no significant differences” and the BUN ([5]; blood, at endpoint) was 10.8 mg/dL. The Bicarb. ([5]; blood, at endpoint) was 27.9 mmol/L, the Calcium ([5]; blood, at endpoint) was 9.3 mg/dL and the Chloride ([5]; blood, at endpoint) was 101.1 mmol/L. The Creatinine ([5]; blood, at endpoint) was 0.9 mg/dL, the Potassium ([5]; blood, at endpoint) was 4.4 mmol/L and the Sodium ([5]; blood, at endpoint) was 138.5 mmol/L. For the same molecule, the Glucose ([5]; blood, at endpoint (week 3)) was 112.5 mg/dL, the “blood glucose levels compared to placebo” value ([5]; intranasal administration) was “reduction in blood glucose levels” and the “Urine Osmolality” value ([5]; urine, at endpoint) was 607.9 mOsm/kg.

— patent publication US10314885B2, “Oxytocin treatment to modify blood glucose and treat metabolic disease” (The Regents of the University of California, priority 2010, dated 2019)
